For 23 molecules, IC50 results are on record in patent publication US20050282824A1, “Substituted pyrimidines as inhibitors of bacterial type III protein secretion systems” (priority 2004, published 2005).

A value given as a limit tells only on which side of the number the result lay.

Broadly, the IC50 is the concentration that inhibits the measured activity by half.

One experiment concerns Type III protein secretion of ExoU by P. aeruginosa PA103. Briefly: Tertiary assay: Type III-dependent secretion of ExoU by P. aeruginosa PA103. It counts as cell-based. As to conditions: Pseudomonas aeruginosa, read-out: ExoU IC50(uM). The text has this:
Tertiary assay: inhibition of Type III protein secretion of effectors from a Pseudomonas aeruginosa system. Type III protein secretion is used by P. aeruginosa to secrete several essential virulence determinants. One effector of the type III protein secretion system of P. aeruginosa PA 103 is the virulence determinants ExoU.
The amount of Type III-dependent secretion of ExoU by P. aeruginosa PA103 can be determined in a cell-based assay by quantification of the 73.9 kDa ExoU protein secreted into the extracellular medium. Such quantitation can be achieved by growing strain PA 103 in a deferrated medium in the presence of nitrilotriacetic acid (an inducer of Type III protein secretion in P. aeruginosa) and either in the presence or absence of putative inhibitors. After a prolonged growth period, the cells are sedimented and the supernatants concentrated by ammonium sulfate precipitation. The proteins in the resuspended pellets are separated by electrophoresis on SDS-polyacrylamide gels. After staining gels with Colloidal Blue™, the 73.9 kDa ExoU band is quantitated by scanning through an imager. The effects of inhibitors on the intensity of the ExoU band may be measured relative to that of untreated controls.
Turning to `O=C(N[C@@H](CSCc1ccccc1)C(=O)O)c1cc(N2CCC(Cc3ccccc3)CC2)nc(-c2ccc(Cl)cc2)n1` [Compound 78, (R)-2-{[6-(4-Benzylpiperidin-1-yl)-2-(4-chlorophenyl)pyrimidine-4-carbonyl]-amino}-3-benzylsulfanylpropionic acid], the IC50 came out at 42.4 µM.
Still for that read-out and setting: the result for `O=C(N[C@@H](CSCc1ccccc1)C(=O)O)c1cc(N2CCN(c3ccccn3)CC2)nc(N2CCN(c3ccccn3)CC2)n1` [Compound 66, (R)-3-Benzylsulfanyl-2-{[2,6-bis-(4-pyridin-2-yl-piperazin-1-yl)pyrimidine-4-carbonyl]amino}propionic acid] reads 52.8 µM.
Still for that read-out and setting: next, `O=C(NC(Cc1ccc(Cl)cc1)C(=O)O)c1cc(N2CCN(c3ccccn3)CC2)nc(N2CCN(c3ccccn3)CC2)n1` (stereo not drawn) [Compound 67, 2-{[2,6-Bis-(4-pyridin-2-yl-piperazin-1-yl)pyrimidine-4-carbonyl]amino}-3-(4-chlorophenyl)propionic acid]: 65.6 µM; `O=C(NC(Cc1ccc(Cl)cc1)C(=O)O)c1cc(N2CCC(Cc3ccccc3)CC2)nc(-c2ccc(Cl)cc2)n1` (stereo not drawn) [Compound 79, 2-{[6-(4-Benzylpiperidin-1-yl)-2-(4-chlorophenyl)pyrimidine-4-carbonyl]amino}-3-(4-chlorophenyl)propionic acid]: 64 µM.
Same read-out and setting: next, `O=C(N[C@@H](CSCc1ccccc1)C(=O)O)c1cc(N2CCN(c3ccccn3)CC2)nc(-c2ccoc2)n1` [Compound 72, (R)-3-Benzylsulfanyl-2-{[2-furan-3-yl-6-(4-pyridin-2-yl-piperazin-1-yl)pyrimidine-4-carbonyl]amino}propionic acid]: > 50 µM.
For the molecule `O=C(N[C@H](Cc1ccc(Cl)cc1)C(=O)O)c1cc(N2CCCCC2)nc(-c2ccc(-c3ccccc3)cc2)n1` [Compound 34, (R)-2-[(2-Biphenyl-4-yl-6-piperidin-1-yl-pyrimidine-4-carbonyl)amino]-3-(4-chlorophenyl)propionic acid], the IC50 was determined as 71 µM.
For `CN(C)c1ccc(-c2nc(C(=O)NC(Cc3ccc(Cl)cc3)C(=O)O)cc(N3CCN(c4ccccn4)CC3)n2)cc1` (stereo not drawn) [Compound 70, 3-(4-Chlorophenyl)-2-{[2-(4-dimethylaminophenyl)-6-(4-pyridin-2-yl-piperazin-1-yl)pyrimidine-4-carbonyl]amino}propionic acid], the IC50 was 29.8 µM.
For the molecule `O=C(N[C@@H](CSCc1ccccc1)C(=O)O)c1cc(N2CCC(Cc3ccccc3)CC2)nc(-c2ccc(C(F)(F)F)cc2)n1` [Compound 77, (R)-2-{[6-(4-Benzylpiperidin-1-yl)-2-(4-trifluoromethylphenyl)pyrimidine-4-carbonyl]amino}3-benzylsulfanylpropionic acid], the IC50 came out at 92.8 µM.
On the same count and under the same terms, next, `CC1CCN(c2nc(C(=O)N[C@@H](CSCc3ccccc3)C(=O)O)cc(N3CCN(c4ccccn4)CC3)n2)CC1` [Compound 64, (R)-3-Benzylsulfanyl-2-{[2-(4-methylpiperidin-1-yl)-6-(^4-pyridin-2-yl-piperazin-1-yl)pyrimidine-4-carbonyl]amino}propionic acid]: 18.9 µM; `CN(C)c1ccc(-c2nc(C(=O)N[C@@H](COCc3ccccc3)C(=O)O)cc(N3CCN(c4ccccn4)CC3)n2)cc1` [Compound 69, (S)-3-Benzyloxy-2-{[2-(4-dimethylaminophenyl)-6-(4-pyridin-2-yl-piperazin-1-yl)-pyrimidine-4-carbonyl]amino}propionic acid]: > 100 µM; `O=C(NC(Cc1ccc(Cl)cc1)C(=O)O)c1cc(N2CCN(c3ccccn3)CC2)nc(-c2ccc([N+](=O)[O-])cc2)n1` (stereo not drawn) [Compound 68, 3-(4-Chlorophenyl)-2-{[2-(4-nitrophenyl)-6-(4-pyridin-2-yl-piperazin-1-yl)-pyrimidine-4-carbonyl]amino}propionic acid]: 21.1 µM.
On to `CN1CCN(c2cc(C(=O)N[C@@H](CSCc3ccccc3)C(=O)O)nc(N3CCN(c4ccccn4)CC3)n2)CC1` [Compound 75, (R)-3-Benzylsulfanyl-2-{[6-(4-methyl-piperazin-1-yl)-2-(4-pyridin-2-yl-piperazin-1-yl)pyrimidine-4-carbonyl]amino}propionic acid], for which the IC50 is > 100 µM.
Same read-out and setting: next, `CN1CCN(c2cc(C(=O)N[C@@H](COCc3ccccc3)C(=O)O)nc(N3CCN(c4ccccn4)CC3)n2)CC1` [Compound 76, (S)-3-Benzyloxy-2-{[6-(4-methyl-piperazin-1-yl)-2-(4-pyridin-2-yl-piperazin-1-yl)-pyrimidine-4-carbonyl]amino}propionic acid]: > 50 µM; `Cc1cc(C(=O)N[C@@H](CSCc2ccccc2)C(=O)O)nc(N2CCC(c3ccccc3)CC2)n1` [Compound 2, (R)-3-Benzylsulfanyl-2-{[6-methyl-2-(4-phenylpiperidin-1-yl)pyrimidine-4-carbonyl]amino}propionic acid]: > 100 µM; `O=C(N[C@H](Cc1ccc(Cl)cc1)C(=O)O)c1cc(N2CCCc3ccccc32)nc(-c2ccc(-c3ccccc3)cc2)n1` [Compound 33, (R)-2-{[2-Biphenyl-4-yl-6-(3,4-dihydro-2H-quinolin-1-yl)pyrimidine-4-carbonyl]amino}-3-(4-chlorophenyl)propionic acid]: 24.4 µM.
`CC1CCN(c2cc(C(=O)N[C@@H](CSCc3ccccc3)C(=O)O)nc(N3CCN(c4ccccn4)CC3)n2)CC1` [Compound 74, (R)-3-Benzylsulfanyl-2-{[6-(4-methylpiperidin-1-yl)-2-(4-pyridin-2-yl-piperazin-1-yl)pyrimidine-4-carbonyl]amino}propionic acid]: the IC50 is > 50 µM.
On the same count and under the same terms, next, `O=C(N[C@@H](COCc1ccccc1)C(=O)O)c1cc(N2CCN(c3ccccn3)CC2)nc(-c2ccoc2)n1` [Compound 73, (S)-3-Benzyloxy-2-{[2-furan-3-yl-6-(4-pyridin-2-yl-piperazin-1-yl)pyrimidine-4-carbonyl]amino}propionic acid]: > 50 µM.
The same measure, in the same setting: next, `O=C(N[C@@H](COCc1ccccc1)C(=O)O)c1cc(N2CCN(c3ccccn3)CC2)nc(-c2cccs2)n1` [Compound 71, (S)-3-Benzyloxy-2-{[6-(4-pyridin-2-yl-piperazin-1-yl)-2-thiophen-2-yl-pyrimidine-4-carbonyl]amino}propionic acid]: > 50 µM; `O=C(N[C@@H](COCc1ccccc1)C(=O)O)c1cc(N2CCN(c3ccccn3)CC2)nc(N2CCN(c3ccccn3)CC2)n1` [Compound 65, (S)-3-Benzyloxy-2-{[2,6-bis-(4-pyridin-2-yl-piperazin-1-yl)pyrimidine-4-carbonyl]-amino}propionic acid]: 38.4 µM.

A further experiment concerns SPI1 type III protein secretion of SopE'-'Bla by Salmonella enterica. Put plainly: Primary assay: Type III protein secretion of the chimeric SopE'-'Bla polypeptide by Salmonella enterica. It counts as cell-based. As to conditions: read-out: SopE IC50(uM). The text has this:
Primary assay: Type III protein secretion of the chimeric SopE′-′Bla polypeptide by Salmonella enterica. This procedure is a cell-based assay that measures the type III-dependent secretion by Salmonella enterica of a plasmid-encoded chimeric polypeptide whose synthesis can be regulated, and which is endowed with an enzymatic activity that can be monitored […] by hydrolysis of a substrate that is unable to penetrate into the bacterial cytoplasm within the time constraints of the reaction. Thus, the colorimetric reaction is not influenced by SopE′-′Bla polypeptide in the bacterial cytoplasm. Instead, it effectively measures the amount of polypeptide that has been secreted from the S. enterica cytoplasm to the extracellular medium via type III system protein secretion.
The SopE′-′Bla recombinant polypeptide consists of two functionally distinct domains spliced together. The N-terminus domain is encoded by a polynucleotide region specifying the signal for type III secretion of the SopE polypeptide of S. enterica, an effector of the SPI1 type III protein secretion system. The C-terminus domain of SopE′-′Bla consists of a 263 amino acid peptide sequence that corresponds to the TEM-1 β-lactamase expressed by plasmid pBR322 but without its N-terminal signal sequence. The TEM-1 β-lactamase part of the SopE′-′Bla chimeric polypeptide is used as a reporter enzyme. It is capable of hydrolyzing nitrocefin resulting in a product whose accumulation can be monitored by colorimetric detection. The secretion of the SopE′-′Bla chimeric polypeptide from the cytoplasm to the extracellular medium is dependent on type III protein secretion.
For this procedure, cells grown under conditions known to favor a functional SPI1 secretion system are induced for expression of the SopE′-′Bla protein and grown either in the presence or in the absence of putative inhibitors for determined time. Nitrocefin is then added to the various cultures and its hydrolysis are used for quantitation. An inhibitor of Type III protein secretion is generally a compound that reduces the signal of the enzymatic reaction by decreasing the amount of SopE′-′Bla secreted into the extracellular medium.
Turning to `O=C(N[C@H](Cc1ccc(Cl)cc1)C(=O)O)c1cc(N2CCc3ccccc3C2)nc(Cl)n1` [Compound 5, (R)-2-{[2-Chloro-6-(3,4-dihydro-1H-isoquinolin-2-yl)pyrimidine-4-carbonyl]amino}-3-(4-chlorophenyl)propionic acid], the IC50 is 32.7 µM.
The same measure, in the same setting: next, `CN1CCN(c2nc(C(=O)N[C@@H](COCc3ccccc3)C(=O)O)cc(N3CCN(c4nccc(C(F)(F)F)n4)CC3)n2)CC1` [Compound 45, (S)-3-Benzyloxy-2-({2-(4-methyl-piperazin-1-yl)-6-[4-(4-trifluoromethylpyrimidin-2-yl)piperazin-1-yl]pyrimidine-4-carbonyl}amino)propionic acid]: 60.7 µM; `O=C(N[C@@H](CSCc1ccccc1)C(=O)O)c1cc(N2CCCCC2)nc(N2CCC(c3ccccc3)CC2)n1` [Compound 29, (R)-3-Benzylsulfanyl-2-{[2-(4-phenylpiperidin-1-yl)-6-piperidin-1-yl-pyrimidine-4-carbonyl]amino}propionic acid]: 3.2 µM.
The same measure, in the same setting: the result for `O=C(N[C@H](Cc1ccc(Cl)cc1)C(=O)O)c1cc(N2CCc3ccccc3C2)nc(-c2ccc(F)cc2)n1` [Compound 9, (R)-3-(4-Chlorophenyl)-2-{[6-(3,4-dihydro-1H-isoquinolin-2-yl)-2-(4-fluoro-phenyl)Pyrimidine-4-carbonyl]amino}propionic acid] reads 8 µM; that for `Cc1cc(C(=O)N[C@@H](CSCc2ccccc2)C(=O)O)nc(N2CCC(c3ccccc3)CC2)n1` [Compound 2, (R)-3-Benzylsulfanyl-2-{[6-methyl-2-(4-phenylpiperidin-1-yl)pyrimidine-4-carbonyl]amino}propionic acid], 34.2 µM.
